Test results from patent publication US6194173A, “Binding proteins for phosphoinositides, GRP1 or general receptor 1 for phophoinositide” (priority 1999, dated 2001).
Blank lines part the entries; values can stand above or below the molecule they belong to.

Key:
[1] = biological target: T1, GSTPH(GRP) (Mus musculus, UniProt O08967); test: Competition of [32P]PI(3,4,5)P3 binding to GST-PH by inositol phosphate head groups; set-up: species or system murine; conditions: for inhibition of [^32 P]PI(3,4,5)P3 binding to GST-PH(GRP): 100 μM competitor; for binding of inositol phosphate to GRP polypeptides: statement in the description
T1 construct: residues 239 to 399 (PH domain); made in house; host or cells: bacteria
T1 sequence (O08967 239-399): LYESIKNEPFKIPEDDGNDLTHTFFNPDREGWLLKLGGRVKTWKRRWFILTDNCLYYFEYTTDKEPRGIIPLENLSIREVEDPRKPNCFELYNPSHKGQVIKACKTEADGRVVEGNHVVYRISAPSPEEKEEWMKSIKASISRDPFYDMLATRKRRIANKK
Text: (§1) To generate the GST fusion proteins, PCR reactions using the primers: […] (SEQ ID NO:9) and […] (SEQ ID NO:10) for the GST-N construct, […] (SEQ ID NO:11) and […] (SEQ ID NO:12) for the GST-Sec7 construct, […] (SEQ ID NO:13) and […] (SEQ ID NO:14) for the GSTPH construct, and […] (SEQ ID NO:15) and […] (SEQ ID NO:16) for the GSTGRP constructs. The sequences of the PCR products were verified, and cloned into pGEX-5X-3 in the EcoRI and Xba 1 sites. The bacteria were lysed and the fusion proteins were bound to gluthathione agarose according to standard procedures. Elution was effected by incubation of the beads with one volume 20 mM Hepes, 100 mM NaCl, 1 mM dithiotreitol (H buffer) supplemented with 10 mM gluthatione and 1% sodium cholate, and the eluate was dialyzed extensively against H buffer. For binding assays, protein was bound to nitrocellulose using a BIO-RAD BIO-DOT™ apparatus, using 150 pmol per well for binding assays and 7.5 pmol for competition assays. The nitrocellulose was washed in assay buffer, and 3 mm circles of the filters containing the protein were cut out and incubated in […] assay buffer with the relevant lipids and competitors for 2 h under constant agitation. The filters were washed four times with 1 mL assay buffer and counted in a scintillation counter.
The specificity of the GRP PH domain for binding [^32 P]PI(3,4,5,)P3 was also examined with respect to competition by the inositol phosphate head groups of the phosphoinositides. […] More specifically, 25,000 cpm of [^32 P]PI(3,4,5)P3 was incubated with varying concentrations of inositol 1 ,3,4,5P4 and bound radioactivity determined. The amount of radioactivity bound was calculated as percent of that bound in the absence of competitor. The values are means of quadruplicate measurements, and the error bars are standard deviations. The lack of inhibition by the latter two phosphoinositides is particularly striking since they carry the same charge as the inhibitor […] The concentration of inositol 1,3,4,5-P4 that inhibited binding of [^32 p]PI(3,4,5,)P3 half maximally was about 3-6 μM (FIG. 5A). Taken together, the data in FIGS. 4 and 5 indicate extraordinary specificity of the GRP PH domain for PI(3,4,5)P3. […] The binding to GST fusion proteins containing amino acids 462-569 of murine Sos or amino acid 13-115 of murine IRS-1 was assayed using 150 pmoles of protein bound to the filters. Competition of binding to 7.5 pmoles of GST-PH was measured in the presence of 100 μM of the competitors. The values were calculated as in (A), and are means of quadruplicate measurements and the error bars represent standard deviations.

[2] = biological target: T2, GRP (Mus musculus, UniProt O08967); test: Inhibition by inositol phosphates of PtdIns(3,4,5)P3-stimulated GRP-mediated ARF1 exchange; assay type: biochemical; conditions: 100 μM inositol phosphate, 0.05% cholate and 0.05% CHAPS
T2 construct: GST (N, cleaved yes); made in house; host or cells: GRP from pGEX-4T; ARF1 from baculovirus-infected Sf-9 cells
T2 sequence (O08967 1-399): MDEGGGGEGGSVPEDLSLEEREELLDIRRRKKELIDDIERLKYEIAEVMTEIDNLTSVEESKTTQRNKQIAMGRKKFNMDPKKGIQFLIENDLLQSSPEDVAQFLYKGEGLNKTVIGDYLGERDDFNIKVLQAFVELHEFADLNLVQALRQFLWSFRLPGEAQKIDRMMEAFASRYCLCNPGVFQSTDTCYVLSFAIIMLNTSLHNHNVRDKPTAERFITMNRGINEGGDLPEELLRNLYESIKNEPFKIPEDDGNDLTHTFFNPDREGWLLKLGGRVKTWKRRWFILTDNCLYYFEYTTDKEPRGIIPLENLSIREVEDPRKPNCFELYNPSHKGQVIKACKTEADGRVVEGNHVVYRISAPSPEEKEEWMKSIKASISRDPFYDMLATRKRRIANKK

[3] = tested on: ARF1; test: ARF1 guanine nucleotide exchange ([35S]GTPγS binding); assay type: biochemical; conditions: [^35 S]GTPγS binding to immunoprecipitated ARF1
[4] = Binding of [32P]PI(3,4,5)P3 by GST fusion proteins spotted on nitrocellulose; conditions: 150 pmol protein on nitrocellulose; relative to GST
Experimental: The 3'-phosphatidylinositol probes labeled at the 3' position were generated using GST-p110 PI3-kinase purified from recombinant bacculovirus infected Sf 9 cells, using either purified phosphatidylinositol phosphates or crude brain lipid. Briefly, 20 mg phospholipid in chloroform was dried under N2 and resuspended in […] of buffer containing Tris-HCl pH 7.4, EDTA 1 mM and incubated in […] phopsphorylation media containing 20 mM Tris-HCl pH 7.4, 100 mM NaCl, 10 mM MgCl2, 0.5 mM EGTA. 0.2 mM adenosine, GST-p110 and 5-10 mCi [g-^32 P]ATP (5 Ci/umol). The reaction was carried out for 2 h at room temperature, quenched by addition of 0.2 ml of 1M HCl, followed by 0.5 ml of chloroform:methanol (1:1). The organic phase containing phospholipids was washed 4 times with 0.4 ml of methanol:HCl (1: 1) and stored at -70° C. until use. Just before use, the lipid was dried under a stream of nitrogen with phosphatidyl serine corresponding to a final concentration of 20 mg/ml. The identities of the PI3-P, PI3,4-P2 and PI3,4,5-P3 were confirmed by TLC and HPLC analysis.
as §1
In order to determine whether PI(3,4,5)P3 binding could be localized to specific sequences within the GRP structure, GST fusion proteins containing either residues 239 to 399 (PH domain), residues 52 to 260 (Sec7 domain), or residues 5 to 71, full length GRP residues 5-399 were expressed in bacteria and purified on glutathione-conjugated beads. […] 150 pmol of the proteins were spotted on nitrocellulose filters, incubated with [^32 P]PI(3,4,5)P3 and the amount of bound lipid was determined as described. The values are the means of the quadruplicate determinations, and the error bars are the standard deviations. […] Nitrocellulose filters with GST-PH were incubated with 25,000 cpm of each of the phospholipids and the amount of bound lipid determined as described above. The values are the means of quadruplicate determinations and the error bars are the standard deviations. […] Although previous work has shown that PH domain from PLCδ (Lemmon et al. (1995) supra) and various other proteins bind 4,5-polyphosphoinositide, none have been reported to preferentially associate with a 3-polyphosphoinositide. […]

- inhibition of [^32 P]PI(3,4,5)P3 binding to GST-PH(GRP) [1]: markedly inhibited
- IC50 ([1]; 25,000 cpm [^32 P]PI(3,4,5)P3, GST-PH, read-out: concentration that inhibited binding of [^32 p]PI(3,4,5)P3 half maximally): 3 to 6 µM
- binding of inositol phosphate to GRP polypeptides [1]: bind
- inhibition of PtdIns(3,4,5)P3-stimulated GRP-mediated ARF1 guanine nucleotide exchange [2]: virtually ablated
- inhibition of PtdIns(3,4,5)P3-stimulated GRP-mediated ARF1 guanine nucleotide exchange ([2]; listed as Ins(1,3,4,5) tetrakisphosphate): selectively blocked
Molecule: O=P(O)(O)O[C@H]1[C@H](O)[C@@H](OP(=O)(O)O)[C@H](OP(=O)(O)O)[C@@H](OP(=O)(O)O)[C@H]1O [Ins(1,3,4,5)P4, inositol 1,3,4,5-P4]

- ARF1 guanine nucleotide exchange [3]: no effect
- binding of [^32 P]PI(3,4,5)P3 by GST fusion protein [4]: extensive binding
B2: GRP PH domain: GST fusion protein containing residues 239 to 399 (PH domain) (protein)
chain: T1 sequence (O08967 239-399)
modifications: GST fusion partner

- binding of [^32 P]PI(3,4,5)P3 by GST fusion protein [4]: negligible
B4: IRS-1PH domain: GST fusion protein containing amino acid 13-115 of murine IRS-1 (protein, UniProt P35569 13-115, looked up, fragment)
chain: VRKVGYLRKPKSMHKRFFVLRAASEAGGPARLEYYENEKKWRHKSSAPKRSIPLESCFNINKRADSKNKHLVALYTRDEHFAIAADSEAEQDSWYQALLQLHN
modifications: PH domain GST fusion

Continued, molecule first:

Molecule: O=P(O)(O)O[C@H]1[C@H](OP(=O)(O)O)[C@@H](OP(=O)(O)O)[C@H](O)[C@@H](O)[C@H]1OP(=O)(O)O (relative stereo) [Ins(1,2,5,6)P4, inositol 1,2,5,6-P4]
- inhibition of [^32 P]PI(3,4,5)P3 binding to GST-PH(GRP) [1]: little or no effect
- binding of inositol phosphate to GRP polypeptides [1]: not
- inhibition of PtdIns(3,4,5)P3-stimulated GRP-mediated ARF1 guanine nucleotide exchange [2]: failed to inhibit

Molecule: O=P(O)(O)O[C@@H]1[C@@H](O)[C@H](OP(=O)(O)O)[C@@H](OP(=O)(O)O)[C@@H](O)[C@H]1OP(=O)(O)O [Ins(1,3,4,6)P4, inositol 1,3,4,6-P4]
- inhibition of [^32 P]PI(3,4,5)P3 binding to GST-PH(GRP) [1]: little or no effect
- binding of inositol phosphate to GRP polypeptides [1]: not
- inhibition of PtdIns(3,4,5)P3-stimulated GRP-mediated ARF1 guanine nucleotide exchange [2]: failed to inhibit

Molecule: O=P(O)(O)O[C@H]1[C@H](O)[C@@H](O)[C@H](OP(=O)(O)O)[C@@H](OP(=O)(O)O)[C@H]1O [Ins(1,3,4)P3]
- inhibition of PtdIns(3,4,5)P3-stimulated GRP-mediated ARF1 guanine nucleotide exchange [2]: failed to inhibit

B1: N-terminus of GRP: GST fusion protein containing residues 5 to 71 (protein, UniProt O08967 5-71, looked up, fragment)
chain: GGGEGGSVPEDLSLEEREELLDIRRRKKELIDDIERLKYEIAEVMTEIDNLTSVEESKTTQRNKQIA
modifications: GST fusion
- ARF1 guanine nucleotide exchange [3]: no effect
- binding of [^32 P]PI(3,4,5)P3 by GST fusion protein [4]: No significant binding

B3: GRP Sec7 domain: GST fusion protein containing residues 52 to 260 (Sec7 domain) (protein, UniProt O08967 52-260, looked up, fragment)
chain: IDNLTSVEESKTTQRNKQIAMGRKKFNMDPKKGIQFLIENDLLQSSPEDVAQFLYKGEGLNKTVIGDYLGERDDFNIKVLQAFVELHEFADLNLVQALRQFLWSFRLPGEAQKIDRMMEAFASRYCLCNPGVFQSTDTCYVLSFAIIMLNTSLHNHNVRDKPTAERFITMNRGINEGGDLPEELLRNLYESIKNEPFKIPEDDGNDLTH
modifications: Sec7 domain GST fusion
- ARF1 guanine nucleotide exchange [3]: high activity
- ARF1 guanine nucleotide exchange ([3]; listed as SEC7 homology domain): as effective as the fill length GRP
- ARF1 guanine nucleotide exchange ([3]; listed as Sec 7 domains of GRP): sufficient for catalysis
- binding of [^32 P]PI(3,4,5)P3 by GST fusion protein [4]: No significant binding
